Drawing on US20090123563A1, “Pharmaceutical Preparations Comprising Insulin, Zinc Ions and Zinc-Binding Ligand” (NOVO NORDISK A/S, priority 2005, published 2009), this text covers melting point for 14 compounds.

What is called melting point is the temperature, or range, at which the solid turns liquid. For `COc1cc(/C=C2\SC(=O)NC2=O)cc(I)c1O`, the melting point came out at 256 °C.

In the case of `O=C1NC(=O)/C(=C/c2ccc3cc(O)ccc3c2)S1`, the melting point lay within 310 to 314 °C. With `O=C1NC(=O)/C(=C/c2c[nH]c3ccc([N+](=O)[O-])cc23)S1`, the melting point lay in the range of 330 to 333 °C. The compound `O=C1NC(=O)/C(=C/c2c(Cl)cccc2Cl)S1` registered a melting point of 152 to 154 °C. The compound `COc1cc(O)cc(OC)c1/C=C1\SC(=O)NC1=O` returned a melting point of 331 to 333 °C. In the case of `Cc1cccc(C)c1/C=C1\SC(=O)NC1=O`, the melting point fell in the range of 104 to 105 °C. As to `COc1cccc(OC)c1/C=C1\SC(=O)NC1=O`, the melting point was in the range of 241 to 242 °C. The compound `COc1cc(OCc2c(F)cccc2[N+](=O)[O-])cc(OC)c1/C=C1\SC(=O)NC1=O` gave a melting point of 255 to 256 °C. The same measure for `O=C1NC(=O)/C(=C/c2cc3ccccc3o2)S1`: 265 to 266 °C; for `CN(C)c1ccc(/C=C/C=C2\SC(=O)NC2=O)cc1`: 259 to 263 °C; for `CC(/C=C1\SC(=O)NC1=O)=C\c1ccccc1`: 203 to 210 °C. The compound `O=C1NC(=O)/C(=C/C(Cl)=C/c2ccccc2)S1` yielded a melting point of 251 to 254 °C.

`O=C1NC(=O)/C(=C/c2cc3ccccc3[nH]c2=O)S1` gave a melting point of 338 to 347 °C. The compound `c1cc(COc2ccc3ccccc3c2)cc(-c2nnn[nH]2)c1` yielded a melting point of 200 to 202 °C.
